According to US6548270B1, “DNA encoding human acid-sensing ion channel BNaC4 (ASIC4)” (Ortho-McNeil Pharmaceutical, Inc., priority 2000, dated 2003):

How the values were obtained:
human BNaC4 = biological target: T1, human BNaC4 (Homo sapiens, UniProt Q96FT7); experiment: pH 4.5-elicited current in HEK293 cells transiently expressing human BNaC4 (whole cell patch clamp); type: cell-based; parameters: achieved by transfection of full-length human BNaC4 cDNA into a mammalian host cell; expressed in transfected cells; host or cells: HEK293, transient co-transfection of phBNaC4 (pCI Neo) and pEGFP; conditions: 500 uM amiloride; HEK293 cells transfected with hBNaC4; n=3
T1 sequence (Q96FT7 1-539): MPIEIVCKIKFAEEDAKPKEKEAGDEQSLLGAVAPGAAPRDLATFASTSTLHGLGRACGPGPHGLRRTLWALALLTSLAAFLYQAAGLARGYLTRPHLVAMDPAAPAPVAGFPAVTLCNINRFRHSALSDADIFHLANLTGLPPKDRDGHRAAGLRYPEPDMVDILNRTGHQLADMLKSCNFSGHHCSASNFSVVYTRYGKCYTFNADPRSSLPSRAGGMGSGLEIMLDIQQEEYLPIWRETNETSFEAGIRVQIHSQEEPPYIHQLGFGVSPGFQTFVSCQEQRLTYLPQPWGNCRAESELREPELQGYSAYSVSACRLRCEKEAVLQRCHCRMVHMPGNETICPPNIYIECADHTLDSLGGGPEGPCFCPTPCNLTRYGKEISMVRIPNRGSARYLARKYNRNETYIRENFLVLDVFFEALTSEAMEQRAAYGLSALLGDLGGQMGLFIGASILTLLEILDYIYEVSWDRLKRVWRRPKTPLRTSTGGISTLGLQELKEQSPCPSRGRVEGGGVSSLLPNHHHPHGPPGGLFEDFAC
Experimental: Human HEK293 cells were transfected with human BNaC4 (phBNaC4) together with the pEGFP vector (Clontech). Transient transfections 2 μg of phBNAC4 together with 1 μg pEGFP per 10^6 cells per 100 mm dish are performed using the Effectene transfection kit (Quiagen; 301425). Two to three days after transfection, cells are plated onto 12 mm round coverslips and maintained in growth media overnight. After one day, wells were tested for their whole cell response to application of low pH from nearby puffer pipettes using whole cell voltage clamp. Cells expressing GFP were tested (GFP-positive cells). Transfections with vector alone with GFP were used as controls (GFP-positive). […] The standard physiological saline (“Tyrodes”) contained: 130 mM NaCl, 4 mM KCl, 1 mM CaCl2, 1.2 mM MgCl2, and 10 mM hemi-Na-HEPES (pH 7.3, 295-300 mOsm as measured using a Wescor 5500 vapor-pressure (Wescor, Inc., Logan, Utah). Recording electrodes were fabricated from borosilicate capillary tubing (R6; Garner Glass, Claremont, Calif.), the tips are coated with dental periphery wax (Miles Laboratories, South Bend, Ind.), and have resistances of 1-2 MΩ when containing intracellular saline: 100 mM K-gluconate, 25 mM KCl, 0.483 mM CaCl2, 3 mM MgCl2, 10 mM hemi-Na-HEPES and 1 mM K4-BAPTA (100 nM free Ca^+2); pH 7.4, with dextrose added to achieve 290 mOsm). […]

hASIC3 = biological target: T2, hASIC3 (Homo sapiens, UniProt Q9UHC3); conditions: 100 μM amiloride, Seguela and Babinski, 1999; cited from earlier work
T2 sequence (Q9UHC3 1-531): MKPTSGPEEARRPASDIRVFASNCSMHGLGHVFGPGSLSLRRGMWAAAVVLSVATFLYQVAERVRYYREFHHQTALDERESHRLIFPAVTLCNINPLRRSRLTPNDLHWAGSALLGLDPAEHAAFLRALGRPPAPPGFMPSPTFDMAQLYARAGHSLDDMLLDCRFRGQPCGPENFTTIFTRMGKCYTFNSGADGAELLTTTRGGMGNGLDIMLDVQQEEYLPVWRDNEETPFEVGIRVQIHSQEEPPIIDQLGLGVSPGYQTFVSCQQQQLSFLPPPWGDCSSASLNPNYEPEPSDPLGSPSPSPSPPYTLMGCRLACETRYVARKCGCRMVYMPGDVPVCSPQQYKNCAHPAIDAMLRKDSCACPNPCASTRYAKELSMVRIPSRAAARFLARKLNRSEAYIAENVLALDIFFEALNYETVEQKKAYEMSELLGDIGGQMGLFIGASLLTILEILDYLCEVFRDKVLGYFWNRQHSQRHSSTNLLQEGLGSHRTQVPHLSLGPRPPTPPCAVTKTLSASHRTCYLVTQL

block of the pH 4.5 effect (current elicited by pH 4.5) (human BNaC4): 98+/−2%
SMILES: N=C(N)NC(=O)c1nc(Cl)c(N)nc1N [amiloride]
decrease of sustained current (hASIC3): sustained current by ˜30%; fast
